Reference: patent publication US12338256B2, “Aza-tetracyclic oxazepine compounds and uses thereof” (Genentech, Inc., priority 2022, dated 2025)
pIC50: −log10 of the molar value.

Legend:
[1] = tested on: HPAC (homozygous mutant KRAS G12D human pancreatic cell line); assay: KRAS 3D-Cell Proliferation Assay, HPAC (Example 503); assay type: cell-based; settings: Homo sapiens, HPAC, 168 h, HPAC 3D culture, 7 days, CellTiter-Glo 3D; read-out: Prolif HPAC 3D ATP IC50
Procedure, shortened: (§1)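 3D culture, ultra-low attachment wells; RPMI-1640/10% FBS/2 mM L-glutamine. Overnight settle, then compound series, 0.3% DMSO final, 7 d, 37° C, 5% CO2. Readout: CellTiter-Glo 3D luminescence. % inhibition vs DMSO (0%) and 1 μM staurosporine (100%); IC50 via 4-parameter Hill.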

[2] = tested on: H1975 (KRAS wild type human lung adenocarcinoma cell line); assay: KRAS 3D-Cell Proliferation Assay, H1975 (Example 503); assay type: cell-based; settings: Homo sapiens, NCI-H1975, 168 h, H1975 3D culture, 7 days, CellTiter-Glo 3D; read-out: Prolif H1975 3D ATP IC50
Procedure, shortened: as §1

Row | SMILES | pIC50 [1] | pIC50 [2]
1 | Cc1c(F)c(N)cc(-c2nc3c4c(nc(OCCCN5C[C@@H]6C[C@H]5CO6)nc4c2F)N2C[C@H]4CC[C@H](N4)[C@H]2[C@H](C)O3)c1C(F)(F)F [Compound 164, 5-((5S,5aS,6S,9R)-12-(3-((1S,4S)-2-oxa-5-azabicyclo[2.2.1]heptan-5-yl)propoxy)-1-fluoro-5-methyl-5a,6,7,8,9,10-hexahydro-5H-4-oxa-3,10a,11,13,14-pentaaza-6,9-methanonaphtho[1,8-ab]heptalen-2-yl)-2-fluoro-3-methyl-4-(trifluoromethyl)aniline] | 7.36 | 5.15
2 | Cc1c(F)c(N)cc(-c2nc3c4c(nc(OCC5(CN6C[C@@H]7C[C@H]6CO7)CC5)nc4c2F)N2C[C@H]4CC[C@H](N4)[C@H]2[C@H](C)O3)c1C(F)(F)F [Compound 169, 5-((5S,5aS,6S,9R)-12-((1-(((1S,4S)-2-Oxa-5-azabicyclo[2.2.1]heptan-5-yl)methyl)cyclopropyl)methoxy)-1-fluoro-5-methyl-5a,6,7,8,9,10-hexahydro-5H-4-oxa-3,10a,11,13,14-pentaaza-6,9-methanonaphtho[1,8-ab]heptalene-2-yl)-2-fluoro-3-methyl-4-(trifluoromethyl)aniline] | 9.04 | 6.34
3 | Cc1c(F)c(N)cc(-c2nc3c4c(nc(OCC5(CN6CCO[C@H](CF)C6)CC5)nc4c2F)N2C[C@H]4CC[C@H](N4)[C@H]2[C@H](C)O3)c1C(F)(F)F [Compound 171, 2-Fluoro-5-((5S,5aS,6S,9R)-1-fluoro-12-((1-(((S)-2-(fluoromethyl)morpholino)methyl)cyclopropyl)methoxy)-5-methyl-5a,6,7,8,9,10-hexahydro-5H-4-oxa-3,10a,11,13,14-pentaaza-6,9-methanonaphtho[1,8-ab]heptalen-2-yl)-3-methyl-4-(trifluoromethyl)aniline] | 8.88 | 6.04
4 | Cc1c(F)c(N)cc(-c2nc3c4c(nc(OCC5(CN6CCO[C@@H](CF)C6)CC5)nc4c2F)N2C[C@H]4CC[C@H](N4)[C@H]2[C@H](C)O3)c1C(F)(F)F [Compound 172, 2-Fluoro-5-((5S,5aS,6S,9R)-1-fluoro-12-((1-(((R)-2-(fluoromethyl)morpholino)methyl)cyclopropyl)methoxy)-5-methyl-5a,6,7,8,9,10-hexahydro-5H-4-oxa-3,10a,11,13,14-pentaaza-6,9-methanonaphtho[1,8-ab]heptalen-2-yl)-3-methyl-4-(trifluoromethyl)aniline] | 8.76 | 6.06
5 | Cc1c(F)c(N)cc(-c2nc3c4c(nc(OCC5(CN6CC(F)C6)CC5)nc4c2F)N2C[C@H]4CC[C@H](N4)[C@H]2[C@H](C)O3)c1C(F)(F)F [Compound 173, 2-Fluoro-5-((5S,5aS,6S,9R)-1-fluoro-12-((1-((3-fluoroazetidin-1-yl)methyl)cyclopropyl)methoxy)-5-methyl-5a,6,7,8,9,10-hexahydro-5H-4-oxa-3,10a,11,13,14-pentaaza-6,9-methanonaphtho[1,8-ab]heptalene-2-yl)-3-methyl-4-(trifluoromethyl)aniline] | 8.88 | 6.04
6 | Cc1c(F)c(N)c(F)c(-c2nc3c4c(nc(OC[C@@]56CCCN5C[C@H](F)C6)nc4c2F)N2C[C@H]4CC[C@H](N4)[C@H]2[C@H](C)O3)c1CC(F)F [Compound 175, 4-(2,2-Difluoroethyl)-2,6-difluoro-3-((5S,5aS,6S,9R)-1-fluoro-12-(((2R,7aS)-2-fluorotetrahydro-1H-pyrrolizin-7a(5H)-yl)methoxy)-5-methyl-5a,6,7,8,9,10-hexahydro-5H-4-oxa-3,10a,11,13,14-pentaaza-6,9-methanonaphtho[1,8-ab]heptalen-2-yl)-5-methylaniline] | 7.71 | 5.63
7 | Cc1cc(-c2nc3c4c(nc(OC[C@@]56CCCN5C[C@H](F)C6)nc4c2F)N2C[C@H]4CC[C@H](N4)[C@H]2[C@H](C)O3)c(F)c(N)n1 [Compound 177, 3-Fluoro-4-((5S,5aS,6S,9R)-1-fluoro-12-(((2R,7aS)-2-fluorotetrahydro-1H-pyrrolizin-7°(5H)-yl)methoxy)-5-methyl-5°,6,7,8,9,10-hexahydro-5H-4-oxa-3,10°,11,13,14-pentaaza-6,9-methanonaptho[1,8-ab]heptalen-2-yl)-6-methylpyridin-2-amine] | 5.35 | 4.70
8 | C[C@@H]1Oc2nc(-c3cc(N)cnc3C(F)(F)F)c(F)c3nc(OC[C@@]45CCCN4C[C@H](F)C5)nc(c23)N2C[C@H]3CC[C@H](N3)[C@@H]12 [Compound 178, 5-((5S,5aS,6S,9R)-1-Fluoro-12-(((2R,7aS)-2-fluorotetrahydro-1H-pyrrolizin-7a(5H)-yl)methoxy)-5-methyl-5a,6,7,8,9,10-hexahydro-5H-4-oxa-3,10a,11,13,14-pentaaza-6,9-methanonaphtho[1,8-ab]heptalene-2-yl)-6-(trifluoromethyl)pyridin-3-amine] | 6.88 | 5.03
9 | CCc1cccc2nc(N)cc(-c3nc4c5c(nc(OC[C@@]67CCCN6C[C@H](F)C7)nc5c3F)N3C[C@H]5CC[C@H](N5)[C@H]3[C@H](C)O4)c12 [Compound 179, 5-Ethyl-4-((5S,5aS,6S,9R)-1-fluoro-12-(((2R,7aS)-2-fluorotetrahydro-1H-pyrrolizin-7a(5H)-yl)methoxy)-5-methyl-5a,6,7,8,9,10-hexahydro-5H-4-oxa-3,10a,11,13,14-pentaaza-6,9-methanonaphtho[1,8-ab]heptalene-2-yl)quinolin-2-amine] | 6.53 | 5.08
10 | Cc1c(F)c(N)cc(-c2nc3c4c(nc(OC[C@@]56CCCN5C[C@H](F)C6)nc4c2F)N2C[C@H]4CC[C@H](N4)[C@H]2[C@H](C)O3)c1S(C)(=O)=O [Compound 180, 2-Fluoro-5-((5S,5aS,6S,9R)-1-fluoro-12-(((2R,7aS)-2-fluorotetrahydro-1H-pyrrolizin-7a(5H)-yl)methoxy)-5-methyl-5a,6,7,8,9,10-hexahydro-5H-4-oxa-3,10a,11,13,14-pentaaza-6,9-methanonaphtho[1,8-ab]heptalene-2-yl)-3-methyl-4-(methylsulfonyl)aniline] | 5.70 | 4.70
11 | C[C@@H]1Oc2nc(-c3cc(N)c(=O)n(C)c3C(F)(F)F)c(F)c3nc(OC[C@@]45CCCN4C[C@H](F)C5)nc(c23)N2C[C@H]3CC[C@H](N3)[C@@H]12 [Compound 184, 3-Amino-5-((5S,5aS,6S,9R)-1-fluoro-12-(((2R,7aS)-2-fluorotetrahydro-1H-pyrrolizin-7a(5H)-yl)methoxy)-5-methyl-5a,6,7,8,9,10-hexahydro-5H-4-oxa-3,10a,11,13,14-pentaaza-6,9-methanonaphtho[1,8-ab]heptalene-2-yl)-1-methyl-6-(trifluoromethyl)pyridin-2(1H)-one] | 6.83 | 4.70
12 | Cc1nc(N)cc(-c2nc3c4c(nc(OC[C@@]56CCCN5C[C@H](F)C6)nc4c2F)N2C[C@H]4CC[C@H](N4)[C@H]2[C@H](C)O3)c1CC(F)(F)F [Compound 185, 4-((5S,5aS,6S,9R)-1-Fluoro-12-(((2R,7aS)-2-fluorotetrahydro-1H-pyrrolizin-7a(5H)-yl)methoxy)-5-methyl-5a,6,7,8,9,10-hexahydro-5H-4-oxa-3,10a,11,13,14-pentaaza-6,9-methanonaphtho[1,8-ab]heptalene-2-yl)-6-methyl-5-(2,2,2-trifluoroethyl)pyridin-2-amine] | 7.49 | 5.31
13 | C[C@@H]1Oc2nc(-c3cc(N)c(F)cc3CC(F)F)c(F)c3nc(OC[C@@]45CCCN4C[C@H](F)C5)nc(c23)N2C[C@H]3CC[C@H](N3)[C@@H]12 [Compound 187, 4-(2,2-Difluoroethyl)-2-fluoro-5-((5S,5aS,6S,9R)-1-fluoro-12-(((2R,7aS)-2-fluorotetrahydro-1H-pyrrolizin-7a(5H)-yl)methoxy)-5-methyl-5a,6,7,8,9,10-hexahydro-5H-4-oxa-3,10a,11,13,14-pentaaza-6,9-methanonaphtho[1,8-ab]heptalene-2-yl)aniline] | 7.46 | 4.72
14 | Cc1nc(N)cc(-c2nc3c4c(nc(OC[C@@]56CCCN5C[C@H](F)C6)nc4c2F)N2C[C@H]4CC[C@H](N4)[C@H]2[C@H](C)O3)c1OC(F)F [Compound 188, 5-(Difluoromethoxy)-4-((5S,5aS,6S,9R)-1-fluoro-12-(((2R,7aS)-2-fluorotetrahydro-1H-pyrrolizin-7a(5H)-yl)methoxy)-5-methyl-5a,6,7,8,9,10-hexahydro-5H-4-oxa-3,10a,11,13,14-pentaaza-6,9-methanonaphtho[1,8-ab]heptalene-2-yl)-6-methylpyridin-2-amine] | 7.18 | 5.00
15 | Cc1nc(N)cc(-c2nc3c4c(nc(OC[C@@]56CCCN5C[C@H](F)C6)nc4c2F)N2C[C@H]4CC[C@H](N4)[C@H]2[C@H](C)O3)c1CC(F)F [Compound 189, 5-(2,2-Difluoroethyl)-4-((5S,5aS,6S,9R)-1-fluoro-12-(((2R,7aS)-2-fluorotetrahydro-1H-pyrrolizin-7a(5H)-yl)methoxy)-5-methyl-5a,6,7,8,9,10-hexahydro-5H-4-oxa-3,10a,11,13,14-pentaaza-6,9-methanonaphtho[1,8-ab]heptalene-2-yl)-6-methylpyridin-2-amine] | 7.02 | 4.70
16 | Cc1c(F)c(N)nc(-c2nc3c4c(nc(OC[C@@]56CCCN5C[C@H](F)C6)nc4c2F)N2C[C@H]4CC[C@H](N4)[C@H]2[C@H](C)O3)c1C(F)(F)F [Compound 191, 3-Fluoro-6-((5S,5aS,6S,9R)-1-fluoro-12-(((2R,7aS)-2-fluorotetrahydro-1H-pyrrolizin-7a(5H)-yl)methoxy)-5-methyl-5a,6,7,8,9,10-hexahydro-5H-4-oxa-3,10a,11,13,14-pentaaza-6,9-methanonaphtho[1,8-ab]heptalen-2-yl)-4-methyl-5-(trifluoromethyl)pyridin-2-amine] | 7.53 | 5.85
